Data as given in US20220378714A1, “USE OF CANNABIDIOL PREPARATIONS IN THE TREATMENT OF FRAGILE X SYNDROME” (GW Research Limited, priority 2019, published 2022).

Assays:
Type in all cases: in vivo
[1] = tested on: Fmr1 KO mice; assay: Open field
Procedure: (§1) 60 male mice were tested at 8 weeks of age. CBD (SYN OR BOT 0.08%) were evaluated at 2 doses each (20 and 200 mg/kg) following once daily intraperitoneal administration, at a dose volume of 10 ml/kg. Compounds were administered for 2 weeks prior to the start of testing and throughout testing.
(§2) On the test day, compounds were administered 60 minutes prior to test.
The open field chambers are Plexiglas square chambers (27.3×27.3×20.3 cm; Med Associates Inc., St Albans, Vt.) surrounded by infrared photo beams (16×16×16) to measure horizontal and vertical activity. On the day of testing, mice were brought to the activity experimental room for acclimation to the conditions at least 1 h prior to testing. After a 60 minute pretreatment time, mice were placed in the center of an open field activity box for a 60 minute test period. After the completion of the test, mice were placed back in their home cage.
The time courses for locomotor and rearing activities were presented in 5-minute bins during the 60 minute test. Total distance traveled, and numbers of rears were also summed during the 60 minute test.

[2] = tested on: Fmr1 KO mice; assay: Social interaction (three-chamber paradigm); conditions: higher dose (200 mg/kg i.p.)
Procedure: as §1, §2
The three-chamber paradigm is used to assess social interest. The Plexiglas testing apparatus consists of two side chambers and a center chamber, each 42.5 cm×17.5 cm×23 cm. […]
Group-housed naïve partner mice (age-matched C3H mice) were habituated to the chamber for 30 minutes the day before testing. […] The doorways were then lifted and the subject was allowed to feely explore all three chambers for 10 min while movement was video-recorded and scored manually for sniffing of the mouse or object. […]
Discrimination percentage for time spent in chambers was calculated as (total time spent in mouse chamber-total time spent in object)/(total time spent in mouse+total time in object chamber)*100 and presented in FIG. 4.
Discrimination percentage for interaction frequency was calculated as (number of interactions with mouse−number of interactions with object)/(total number of interactions with the mouse+the object)*100 and is presented in FIG. 5. […]

[3] = tested on: Fmr1 KO mice; assay: Behavioral testing (cohort 2), overall conclusion; conditions: 20 and 200 mg/kg i.p. once daily
Procedure: Test compounds were evaluated at 2 doses each (20 and 200 mg/kg). Test compounds were injected i.p. (intraperitoneal) acutely at 60 min pre-treatment for audiogenic seizures (cohort 1). For all other behavioural testing, a separate cohort of animals were dosed i.p. once per day for 2 weeks prior to the start of testing and then for 2 weeks during testing, with 60 min pre-treatment on test days (cohort 2).
as §1, §2

[4] = tested on: Fmr1 KO mice; assay: Audiogenic seizures (cohort 1); conditions: 200 mg/kg i.p. acute, 60 min pre-treatment, vs vehicle-treated Fmr1 KO
Procedure: 48 male mice were tested at 3 weeks of age. CBD (SYN OR BOT 0.08%) were tested at 2 doses each (20 and 200 mg/kg) following acute intraperitoneal administration at a dose volume of 10 ml/kg. Compounds were administered 60 minutes prior to test.
Following pre-treatment with vehicle or test compound, mice were individually placed in a Plexiglas chamber and allowed to explore for 15 s following which they were exposed to a 125 dB tone for 2 minutes, followed by 1 minute of no sound, and then a further 2 minute tone. The mice were scored based on their response, latency, and seizure intensity:
The following endpoints were reported: • 1. Latency to seize: Time to first seizure (maximum 300 s). […] Latency to respiratory arrest: Time to death (maximum 300 s). Animals that survived received a score of 300 s. • 3. Seizure Score: Maximum score animals obtained during the 5 minute test.

## C=C(C)[C@@H]1CCC(C)=C[C@H]1c1c(O)cc(CCCCC)cc1O [CBD (SYN), cannabidiol]
[1]; 20 mg/kg i.p. once daily, 60 min pre-treatment
  total distance traveled during the 60 minute test period: traveled significantly more than mice treated with CBD (BOT 0.08%) 20 mg/kg
[1]; 200 mg/kg i.p. once daily, post-hoc multiple comparisons
  rearing frequency in 5 min bins: periods in which Fmr1 KO-vehicle treated mice reared significantly more than the treated group: during minutes 35-40 and during minutes 55-60
[2]; Dunn's test vs vehicle-treated Fmr1 KO
  discrimination percentage for time spent in chambers: enhanced discrimination compared to vehicle-treated Fmr1 KO mice
[2]; Sidak's test vs Fmr1 KO vehicle
  total time spent in the partner mouse chamber: spent significantly more time in the partner mouse chamber
[3]
  social or memory related behaviors: Neither the botanically derived purified CBD or the synthetic CBD were found to have any significant improvement
[4]
  median seizure score: This effect was not observed
